Source: patent US6784164B2, “Choline binding proteins for anti-pneumococcal vaccines” (priority 1996, dated 2004)
Read-outs that look alike come from different tables or passages of the source. No end group written: not given here.

Columns and labels:
[1] = test system: Adherence of S. pneumoniae to immobilized fibronectin; format: cell-based; settings: for inhibition of pneumococcal adherence to fibronectin: added to coated wells 15 min prior to bacteria
Description: (§1) Fibronectin, its recombinant fragments, or rsVCAM were noncovalently immobilized through passive adsorption to 60 well Terasaki trays (wettable polystyrene [plasma treated], Robbins Scientific, Sunnyvale, Calif.). Briefly, substrates were reconstituted ([…]) in phosphate buffered saline (DPBS) and allowed to coat the Teresaki trays for 90 min at 37° C. […] Prior to use, the plates were washed five times with DPBS and excess liquid was removed from the wells.
(§2) Bacteria were labeled with fluorescein isothyocyanate as described [Geelen et al., Infect. Immun., 61:1538-1543 (1993)] and were resuspended in DPBS supplemented with 0.05% glucose and Ca^++ and Mg^++. Bacterial suspensions were brought to an A620 of 0.04, previously established to equal 1×10^7 cfu/ml of S. pneumoniae. 10 μl of bacteria were added to each well and incubated statically for 1 hour at 37° C. Unbound bacteria were eliminated by washing five times with DPBS. Bound bacteria were fixed to the surface by incubation with 2.5% glutaraldehyde solution for 3 minutes. Bacteria were counted visually with an inverted microscope (Nikon) equipped for fluorescence with an IF DM 510 filter. Binding was expressed as the number of attached bacteria per 0.25 mm^2 surface area. Values were corrected for non-specific binding by subtracting adherence to uncoated wells and are presented as the mean±standard deviation of at least 3 experiments with 3 to 6 wells/plate/experiment. For some experiments, binding was performed in the presence of rabbit polyclonal anti-pneumococcus R6 antibody or one of the following monoclonal antibodies: anti-choline (TEPC-15), anti-PspA Xi126 and XiR278 [McDaniel et al., Microb. Pathog., 13:261-9 (1992)]; anti-pneumococcal surface adhesin A PsaA [Sampson et al., Infect. Immun., 62:319-324 (1994)]; anti-VLA-4 (R & D Systems); and anti-VCAM-1 (R & D Systems). Alternatively, potential inhibition of pneumococcal binding was assessed in the presence of purified recombinant PspA or PsaA.

[2] = Antigenicity: CBPs injected into rabbits, sera tested by Western blot; parameters: species or system rabbit
Description: Vaccine candidates must be antigenic. The CBPs from choline agarose chromatography were injected into rabbits and sera tested for cross reactivity. Several proteins produced a strong signal. Prominent were CBPs 112, 90, 84 and 70, and 50 (FIGS. 1 and 2).
White rabbits were immunized by intradermal injection in the back with 500 μg purified CBPs in 1 ml of a 1:1 emulsion of buffer and Complete Freund's Adjuvant. The rabbits were boosted with a subcutaneous dorsal injection of 250 μg of purified CBPs in 1 ml of 1:1 buffer to Incomplete Freund's Adjuvant at weeks 3, 6, 9, 12, and 15. Rabbits were pre-bled, and test bled approximately 10 days prior to each boost. Serum obtained at week 16 were used in all experiments.
(§3) The CBPs were examined by SDS-PAGE and Western blot using the following antibodies: (1) polyclonal anti-pneumococcal serum (rabbit or “ROB”); (2) anti-PspA monoclonal antibody; (3) anti-FITC monoclonal antibody; (4) convalescent human anti-pneumococcal sera and (5) polyclonal anti-CBP antibody. 9 CBPs were identified on SDS-PAGE/Western blot.

S. pneumoniae = assay: Direct adherence of S. pneumoniae to wells coated with VCAM-1, fibronectin fragments, peptides or enolase; format: cell-based
Description: as §1, §2

[3] = Western blot of CBPs with pooled human convalescent sera
Description: as §3
The CBPs were analyzed by 7.5% sodium dodecyl sulfate polyacrylamide gel electrophoresis (SDS-PAGE) and by Western blotting after electrophoretic transfer to an Immobilon-P transfer membrane (Millipore Corporation, Bedford, Mass.). For some experiments, pneumococci were labelled with fluorescein isothiocyanate (FITC) as described in the adherence assay. Western blot analysis was carried out with anti-FITC (Moleular Probes), anti-CBP or covalescent antisera each at a dilution of 1:1000. Bound antibody was detected with peroxidase conjugated goat anti-rabbit serum detected with the Chemiluminesce Kit from Amersham (Cambridge, Mass.). The convalescent sera was a mixture of sera pooled from five patients collected one month after recovery from bacteremia and pneumonia. The capsular serotypes of these infecting pneumococci were 3, 7, 14, 22, and 23.

Molecule: NCCCCCC(=O)O [6-amino hexanoic acid]
- inhibition of pneumococcal adherence to fibronectin (in words) [1]: not able to inhibit adherence

Molecule: NCCCC[C@H](N)C(=O)O [L-lysine]
- inhibition of pneumococcal adherence to fibronectin ([1]; 0.1 M): 67%
- inhibition of pneumococcal adherence to fibronectin ([1]; 0.5M): 95%
- inhibition of pneumococcal adherence to fibronectin ([1]; 1 M): 99%

Molecule: C[N+](C)(C)CCO [choline]
- decrease in binding of pneumococci to fibronectin ([1]; preincubation of bacteria in 10% choline solution): greater than 50%

Molecule: CBP84: pneumococcal choline binding protein, SEQ ID NO:3, 85% identical to Elongation Factor G (XREFSLEKTRNIGIMAHVDAGKT; X: residue not identified in the source)
- signal with sera of rabbits injected with CBPs [2]: strong signal

Molecule: WQPPRARI [FN5]
- direct adherence of S. pneumoniae to coated substrate (in words) (S. pneumoniae): able to support adherence

B1: CBP112: 112 kDa surface exposed pneumococcal choline binding protein, N-terminal SEQ ID NO:1 (protein)
chain: MMREIQLDRRKHTQNVALNIKLSAIKTKYLRELNVLEEKSKDELPSEIKAKLDAAFEKFKKDTLKPGEKVAEAKKKVEEAKKKAEDQKEEDRRNYPTNTYKTLELEIAEFDVKVKEAELELVKEEAKESRNEGTIKQAKEKVESKKAEATRLENIKTDRKKAEEEAKRKADAKLKEANVATSDQGKPKGRAKRGVPGELATPDKKENDAKSSDSSVGEETLPSSSLKSGKKVAEAEKKVEEAEKKAKDQKEEDRRNYPTNTYKTLDLEIAESDVKVKEAELELVKEEAKEPRDEEKIKQAKAKVESKKAEATRLENIKTDRKKAEEEAKRKAAEEDKVKEKPAEQPQPAPATQPEKPAPKPEKPAEQPKAEKTDDQQAEEDYARRSEEEYNRLTQQQPPKTEKPAQPSTPKTGWKQENGMWYFYNTDGSMATGWLQNNGSWYYLNANGAMATGWLQNNGSWYYLNANGSMATGWLQNNGSWYYLNANGAMATGWLQYNGSWYYLNSNGAMATGWLQYNGSWYYLNANGDMATGWLQNNGSWYYLNANGDMATGWLQYNGSWYYLNANGDMATGWVKDGDTWYYLEASGAMKASQWFKVSDKWYYVNGSGALAVNTTVDGYGVNANGEWVNZ
- signal with pooled human antisera from individuals recovering from pneumococcal disease [3]: strong signal
- signal with sera of rabbits injected with CBPs [2]: strong signal

B2: rsVCAM: recombinant soluble vascular cell adhesion molecule-1 (protein)
chain: FKIETTPESRYLAQIGDSVSLTCSTTGCESPFFSWRTQIDSPLNGKVTNEGTTSTLTMNPVSFGNEHSYLCTATCESRKLEKGIQVEIYSFPKDPEIHLSGPLEAGKPITVKCSVADVYPFDRLEIDLLKGDHLMKSQEFLEDADRKSLETKSLEVTFTPVIEDIGKVLVCRAKLHIDEMDSVPTVRQAVKELQVYISPKNTVISVNPSTKLQEGGSVTMTCSSEGLPAPEIFWSKKLDNGNLQHLSGNATLTLIAMRMEDSGIYVCEGVNLIGKNRKEVELIVQEKPFTVEISPGPRIAAQIGDSVMLTCSVMGCESPSFSWRTQIDSPLSGKVRSEGTNSTLTLSPVSFENEHSYLCTVTCGHKKLEKGIQVELYSFPRDPEIEMSGGLVNGSSVTVSCKVPSVYPLDRLEIELLKGETILENIEFLEDTDMKSLENKSLEMTFIPTIEDTGKALVCQAKLHIDDMEFEPKQRQSTQTLYVNVAPRDTTVLVSPSSILEEGSSVNMTCLSQGFPAPKILWSRQLPNGELQPLSENATLTLISTKMEDSGVYLCEGINQAGRSRKEVELIIQVTPKDIKLTAFPSESVKEGDTVIISCTCGNVPETWIILKKKAETGDTVLKSIDGAYTIRKAQLKDAGVYECESKNKVGSQLRSLTLDVQGRENNKDYFSPE
- density of S. pneumoniae adhering directly to coated wells (S. pneumoniae): 75±18 bacteria/0.25 mm ^2
- direct adherence as share of adherence to whole fibronectin (S. pneumoniae): 6%
- inhibition of adherence of S. pneumoniae to fibronectin ([1]; preincubation of the bacteria with the substance): 96%

B3: 2-phospho-D-glycerate hydrolyase (protein, UniProt P00924 2-437, looked up)
Enolase 1: AVSKVYARSVYDSRGNPTVEVELTTEKGVFRSIVPSGASTGVHEALEMRDGDKSKWMGKGVLHAVKNVNDVIAPAFVKANIDVKDQKAVDDFLISLDGTANKSKLGANAILGVSLAASRAAAAEKNVPLYKHLADLSKSKTSPYVLPVPFLNVLNGGSHAGGALALQEFMIAPTGAKTFAEALRIGSEVYHNLKSLTKKRYGASAGNVGDEGGVAPNIQTAEEALDLIVDAIKAAGHDGKIKIGLDCASSEFFKDGKYDLDFKNPNSDKSKWLTGPQLADLYHSLMKRYPIVSIEDPFAEDDWEAWSHFFKTAGIQIVADDLTVTNPKRIATAIEKKAADALLLKVNQIGTLSESIKAAQDSFAAGWGVMVSHRSGETEDTFIADLVVGLRTGQIKTGAPARSERLAKLNQLLRIEEELGDNAVFAGENFHHGDKL
notes: glycolytic enzyme enolase (Sigma), yeast
- direct adherence of S. pneumoniae to coated substrate (in words) (S. pneumoniae): No direct adherence
- maximum inhibition of pneumococcal adherence to fibronectin ([1]; 1000 U/ml, added to fibronectin coated wells prior to bacteria): 98%
